Data taken from patent publication US20130064812A1, “COMBINATION THERAPIES FOR HEMATOLOGIC MALIGNANCIES” (Gilead Calistoga LLC, priority 2011, published 2013).
“Also recorded” adds a separate entry of the source. Where two headings read alike, the source gives them in different places.

Assays:
LB and INA-6 cells = assay: MM cell growth with IL-6 or IGF-1 ([3H]-thymidine); assay type: cell-based, human; settings: 5.0 or 10 μM; IL-6 1 and 10 ng/ml, IGF-1 10 and 100 ng/mL
Method: DNA synthesis was determined by measuring [3H]-thymidine incorporation during the last 8 h of 72 h cultures. Data represent means (±SD) of triplicate cultures.

[1] = test system: CLL cells with purified B-cells; assay: IgM production by B-cells cultured with treated CLL cells (ELISA); assay type: cell-based, human; settings: 0.5 μM lenalidomide and/or 10 μM compound, 48 hours, N=6; p<0.0001
Method: Quantization of IgM was determined. Briefly, lenalidomide-treated or vehicle control-treated CLL cells, were irradiated and placed in culture with target, purified B-cells, in the absence or presence of PWM ([…]).
Given the importance of the CD40-CD154 axis for lenalidomide-treated CLL cells to promote normal B-cells to produce immunoglobulin, the compound of formula I was assessed to see whether it could prevent this occurrence. […] CLL cells were irradiated (20 Gy) and placed in culture with purified B-cells, in the absence or presence of 5 μg/mL PWM. Quantification of IgM was determined by ELISA analysis.

CCRF-SB cells = assay: Cell cycle FACS analysis (propidium iodide); assay type: cell-based
Method: Representative fluorescence-activated cell sorting (FACS) analysis of propidium iodide-stained CCRF-SB cells under normal growth conditions, and growth in the presence of the compound of formula I. The average percentage of cells in G0-G1, S, and G2-M phases is calculated in the table below the histographs.

CLL = assay: Previous single-agent study in patients with CLL; assay type: in vivo, human; settings: single-agent therapy
[2] = test system: primary MCL cells and MCL cell lines; assay: PI3K signaling in primary MCL cells and MCL cell lines; assay type: cell-based, human
caspase 3 and PARP = assay: Cleavage of caspase 3 and PARP (immunoblot, Meso Scale plates); assay type: cell-based; settings: 5 or 10 μM, 24 hrs
Method: FIGS. […]
Thereafter, cells were lysed and sized-fractionated and immunoblotted with antibody directed against FLIP, FIG. 29. Additionally, whole cell lysates were added to MDS (Meso Scale Diagnostics) multi-spot 96-well 4 spot plates coated with Total caspase-3, cleaved caspase-3, cleaved PARP, and BSA. Proteins were detected with antibodies labeled with SULFO-TAG reagent and quantified.

[3] = test system: patient chronic lymphocytic leukemia (CLL) cells; assay: Apoptosis of patient CLL cells (Annexin V-FITC/PI); assay type: cell-based, human
Method: Peripheral blood was obtained from patients with B-CLL through the CLL Research Consortium from Ohio State University. Primary CD19-positive cells were isolated using Rosette-Sep (StemCell Technologies). Cells were maintained in RPMI 1640 (Invitrogen) supplemented with 10% heat-inactivated fetal bovine serum, 2 mmol/L L-glutamine, and penicillin (100 units/mL)/streptomycin (100 μg/mL; Invitrogen) at 37° C., 5% CO2, and high humidity. […] After incubation for 10 minutes at room temperature in a light-protected area, the specimens were quantified by flow cytometry on a FACScan™ (Becton Dickinson).

[4] = test system: CD19+ cells from CLL patients; assay: mRNA expression in CD19+ CLL cells (RT-PCR); assay type: cell-based, human; settings: 0.5 μM lenalidomide and/or 10 μM compound, 48 hours
Method: RNA was extracted using TRIzol reagent (Invitrogen) and cDNA was prepared using a SuperScript First-Strand Synthesis System (Invitrogen). Real-Time PCR was performed using pre-designed TaqMan® Gene Expression Assays and ABI Prism 7700 sequence detection system (Applied Biosystems, Foster City, Calif.).
RNA was extracted and converted to cDNA and RT-PCR analysis was done to determine quantities of CD40, CD86 and CD154 mRNA.
Lastly, lenalidomide treatment of CLL cells in culture was tested to determine whether it could promote tumor cell production of vascular endothelial growth factor (VEGF) and basic fibroblast growth factor (b-FGF). […] RNA was extracted and converted to cDNA and RT-PCR analysis was done to determine quantities of bFGF.
RNA was extracted and converted to cDNA and RT-PCR analysis was done to determine quantities of VEGF

CLL patients = assay: Samples from CLL patients undergoing treatment (phospho-flow, plasma cytokines); assay type: in vivo, human
LB cells = assay: MM cell growth with IGF-1 or IL-6 (MTT); assay type: cell-based, human; settings: 0.625 μM-[…], 48 h, with IL-6 or IGF-1
Method: LB cells ([…]) were cultured for 48 h with control media; with the compound of formula I, in the presence or absence of either IL-6 or IGF-1. […] Chemicon International) dye absorbance. Cells were pulsed with 10 μL of 5 mg/mL MTT to each well for the last 4 hours of 48-hour cultures, followed by 100 μL isopropanol containing 0.04 N HCl.

[5] = test system: mantle cell lymphoma lesions; assay: Lesion area in a patient with mantle cell lymphoma; assay type: in vivo, human; settings: 50 mg BID oral, 28 days (1 cycle)
Method: This example provides data relating to the area of lesions of a patient with mantle cell lymphoma after 1 cycle of treatment (28 days) with the compound of formula I. The area of 6 lesions was measured prior to treatment and after a cycle of treatment. […] The results are summarized in a bar graph found in FIG. 12.

[6] = test system: CLL cells on stromaNKTert; assay: Calcein-based adhesion assay of CLL cells on stroma; assay type: cell-based, human
Method: a confluent monolayer of CD154+L or StromaNKTert cells was generated by plating 1×10^4 cells/well in 96-well plates for 24 hours. Single cell suspensions of CLL cells at 0.5×10^6 cells/ml were then labeled with 1 μg/mL Calcein-AM (Invitrogen) for 1 hour. Cells were then spun down and treated with compound or vehicle for 1 to 24 hours. Non-adherent cells were washed off by aspiration. CLL cell adhesion was quantified by fluorimetry (Ex/Em=485/520 nm), and visualized directly using the Nikon TE2000 inverted live-cell imaging system.

CC[C@H](Nc1ncnc2[nH]cnc12)c1nc2cccc(F)c2c(=O)n1-c1ccccc1 [Compound I, 5-fluoro-3-phenyl-2-[1-(9H-purin-6-ylamino)-propyl]-3H-quinazolin-4-one]
growth inhibition in the presence of IL-6 or IGF-1 (LB and INA-6 cells): Neither IL-6 nor IGF-1 protected against the growth inhibition | production of IgM [1]: completely prevent production of IgM | cell cycle (CCRF-SB cells): G0/G1 cell cycle arrest | fraction of patients with CLL with lymphocytosis (CLL): ⅔ | lymphocyte redistribution (CLL): transient lymphocytosis in patients with CLL | pAkt in MCL lines exposed to survival factors [2]: significant reduction of pAkt | constitutive PI3K signaling in primary MCL cells ([2]; two patients, 0.1 μM or 1 μM): block constitutive PI3K signaling in primary MCL cells of two patients in a dose dependent manner | cleavage of caspase 3 and PARP (caspase 3 and PARP): dose dependent response in the cleavage of caspase 3 and PARP | apoptosis of CLL cells from poor prognosis patients [3]: induced apoptosis was seen | apoptosis of CLL cells from refractory/relapsed patients [3]: induced apoptosis was also seen to be effective | apoptosis of CLL patient cells ([3]; 96 hours): dose-dependent cytotoxicity; also recorded: results in apoptosis and the result appears to be dose-dependent | apoptosis of CLL cells from poor prognosis patients ([3]; listed as compound I): increased apoptosis | apoptosis of CLL cells from refractory/relapsed patients ([3]; listed as compound of formula I): increased apoptosis | VEGF transcription ([4]; N=13): reversible by treatment with the compound of formula I | b-FGF transcription ([4]; N=15): prevented this up-regulation | mRNA of CD40, CD86, CD154 and CD80 ([4]; N=15, p<0.009): prevent the increase in mRNA of CD40, CD86, CD154 and CD80 promoted by lenalidomide | mean plasma level of CCL3 (CLL patients; Day28+, baseline 186 pg/mL, 14 CLL patients): 29 pg/mL | mean plasma level of CXCL13 (CLL patients; Day28+, baseline 316 pg/mL, 14 CLL patients): 40 pg/mL | mean plasma level of TNFα (CLL patients; Day28+, baseline 104, 14 CLL patients): 29 pg/mL | mean plasma level of CCL4 (CLL patients; Day28+, baseline 303, 14 CLL patients): 70 pg/mL | mean plasma level of CCL22 (CLL patients; Day28+, baseline 1067, 14 CLL patients): 533 pg/mL | down-regulation of pAkt(T308) in peripheral CLL cells (CLL patients; patients on treatment, n=12): > 90% | MM cell growth (LB cells): inhibits MM cell growth even in the presence of cell growth stimulatory cytokines | decrease in tumor burden [5]: 44% | CLL cell adherence to stroma at one hour [6]: reduced adherence of CLL cells was detectable | CLL cell adherence to stroma at 24 hours ([6]; 10 μM): exhibited less adherent at 24 hours
